Test results from patent EP0698025B1, “AMPA ANTAGONISTS AND A METHOD OF TREATMENT THEREWITH” (NEUROSEARCH A/S, priority 1993, dated 1994).

What was measured:
AMPA receptor = AMPA receptor binding affinity (as described by T. Honoré et al., Neuroscience Letters 54, 27-32 (1985)); conditions: binding affinity for the AMPA receptor
[1] = system: AMPA-induced clonic seizures; assay: In vivo AMPA seizure test (AMPA-induced clonic seizures); set-up: species or system female NMRI mice; conditions: Mus musculus; dose inhibiting 50% of the mice from having clonic seizures; test compound i.v. 5 min (or p.o. 30 min) before 0.3 µg icv AMPA; route not given
Method: Also compounds of the present invention when adminestered i.v. or i.p. in the in vivo AMPA seizure test as described below inhibit the clonic seizures induced by AMPA.
AMPA given icv (intracerebroventricular) (15 µg/kg) NMRI to mice induces clonic seizures which should be inhibited by non-NMDA receptor antagonists. Method: Test compound was given i.v. 5 min (or p.o. 30 min) before a 0.3 µg icv administration of AMPA to 10 female NMRI mice (weighing 24-26 g) per dose. The number of mice experiencing clonic seizures within the next 5 min was noted. An ED50 value was calculated as the dose inhibiting 50% of the mice from having clonic seizures.

SMILES | IC50 (AMPA receptor) [nM] | ED50 [1] [mg/kg]
CN1Cc2c(-c3ccc([N+](=O)[O-])cc3)cc3[nH]c(=O)c(=O)[nH]c3c2C1 [Compound 3] | 600 | –
CN1CCc2c(-c3ccccc3)cc3c(c2C1)NC(=O)C3=NO [Compound 9, 8-methyl-5-phenyl-6,7,8,9-tetrahydro-1H-pyrrolo[3,2-h]isoquinoline-2,3-dione 3-oxime] | 200 | –
CN1CCc2c(-c3ccc([N+](=O)[O-])cc3)cc3c(c2C1)NC(=O)C3=NO [Compound 10, 8-methyl-5-(4-nitrophenyl)-6,7,8,9-tetrahydro-1H-pyrrolo[3,2-h]isoquinoline-2,3-dione 3-oxime] | 150 | 5
CCN1Cc2c(-c3ccccc3)cc3c(c2C1)NC(=O)C3=NO [Compound 13] | 100 | –
